Where two headings read alike, the source gives them in different places.
Columns and labels:
p70 S6 Kinase = molecular target: T1, p70 S6 Kinase (Homo sapiens, UniProt P23443, T412E); experiment: p70 S6 Kinase In Vitro Enzyme Assay (Transcreener Kinase ADP-FP); type: biochemical; settings: 25 micromolar ATP; read-out: IC50 against p70 S6 Kinase
T1 construct: amino acids 1-421, T412E; His tag (N)
Description: Compound IC50 values against p70 S6 Kinase target are determined using the p70 S6 Transcreener™ Kinase ADP-FP Assay. This assay assesses the activity of p70 S6 kinase in the presence of compound inhibitors by measuring the concentration of adenosine diphosphate (ADP) formed in a kinase reaction. The kinase reactions (25 μL reaction volumes) are performed in 96-well half-area black polystyrene plates. Adenosine triphosphate (ATP) is added to start the reactions. Final reaction conditions are 10 millimolar N-2-hydroxyethyl-piperazine-N′-2-ethanesulfonic acid (HEPES) pH 7.5, 0.005% TRITON™ X-100, 0.082 millimolar ethyleneglycol tetraacetic acid (EGTA), 1 millimolar dithiothreitol, 10 millimolar magnesium chloride, 4 micromolar substrate peptide, 25 micromolar ATP, active p70 S6 Kinase (Human recombinant, amino acids 1-421, T412E, N-terminal histidine-tagged), 4% DMSO and serial dilutions of compound (diluted 1:3 from 20,000 to 1 nanomolar). […] Quenched reactions are incubated for 4-16 hours, and then read in a Tecan Ultra Evolution plate reader in Fluorescence Polarization mode using polarizing filters of Ex612nm and Em633nm wavelength. […] The IC50 value for each compound is derived using percent inhibition data which is calculated using the micromolar ADP reaction data relative to on-plate controls (active enzyme versus 100 millimolar inhibited enzyme controls). […]

[1] = test system: Phosphorylation of GSK3β(S9); experiment: p70 S6K/AKT In Vivo Target Inhibition, U87MG xenograft, pGSK3β; set-up: species or system athymic nude mice; settings: Mus musculus, U-87 MG, IV Dose 12.5 mpk, U87MG tumors, read-out: p(S9)GSK 3β - % inhibition
Description: (§1) U87MG human glioblastoma cells (5×106) are subcutaneously implanted into the flank of athymic nude mice in 0.2 mL of matrigel. Two weeks post-implantation, mice are dosed orally or parenterally according to a time course, single dose/single time point, or dose response protocol for the determination of TMED50 (threshold minimum effective dose). Tumors are flash frozen at harvest and blood is collected for the determination of parent compound plasma exposure and the calculation of TMEC50 (threshold minimum effective concentration) in the case of dose response studies. Tumors or tissues are pulverized in liquid N2 and lysed in 400 μL of XY Lysis Buffer (10 μg/mL Leupeptin, 10 μg/mL Trypsin-Chymotrypsin Inhibitor, 10 μg/mL Tosyl phenyl-alanyl chloromethyl ketone, 10 μg/mL Aprotinin, 60 mM Beta-Glycerol Phosphate, 1% Triton X100, 25 mM Tris pH 7.5, 2.5 mM Pyrophosphate, 150 mM NaCl, 2 mM p-tosyl-L-arginine methyl ester, 15 mM para-nitrophenyl phosphate, 5 mM Benzamidine, 1 mM Na Vanadate, 10 mM NaF, 50 μg/mL phenyl-methane sulfonyl fluoride, 1 mM 1,4-Dithiothreitol (DTT), 15 mM EDTA pH 8.0, 5 mM EGTA pH 8.0, 1 μM Microcystin, 1 μM Okadaic Acid, and 1 Roche Complete protease inhibitor mini-tablet per 10 mL) using Lysing Matrix D tubes (MP Biomedicals, Solon, Ohio, cat#6913-500) and a BIO101 Thermo Savant Fast Prep FP12. Lysates are aliquoted and either assayed immediately or stored at −80° C. for later testing. In Vivo Target Inhibition of p70 S6K and AKT is measured utilizing Meso Scale Discovery (Gaithersburg, Md.) ELISA technology to assess effects on phosphorylation of the serine 240/244 site of the downstream effector S6RP. Phosphorylation of p70 S6K(T389), AKT(5473) and GSK3β(S9) is also assessed using this technology in a multiplex format. In summary, 20 μg of lysate is added to carbon electrode containing 96-well plates pre-spotted with the appropriate capture antibodies. The protein of interest is probed using a ruthenium labeled detection antibody. Upon the passage of current over the electrode in the presence of read buffer containing the co-reactant TPA, electro-chemiluminescence results in the generation of light which is quantified and recorded using the MSD Sector 6000 instrument. For each study, percent inhibitions are calculated relative to the vehicle control group and ANOVA analysis is performed using the JMP software package for the determination of statistical significance.

[2] = test system: Phosphorylation of p70 S6K(T389); experiment: p70 S6K/AKT In Vivo Target Inhibition, U87MG xenograft, p-p70 S6K; set-up: species or system athymic nude mice; settings: Mus musculus, U-87 MG, IV Dose 12.5 mpk, U87MG tumors
Description: as §1

T1 sequence (P23443 1-421 T412E): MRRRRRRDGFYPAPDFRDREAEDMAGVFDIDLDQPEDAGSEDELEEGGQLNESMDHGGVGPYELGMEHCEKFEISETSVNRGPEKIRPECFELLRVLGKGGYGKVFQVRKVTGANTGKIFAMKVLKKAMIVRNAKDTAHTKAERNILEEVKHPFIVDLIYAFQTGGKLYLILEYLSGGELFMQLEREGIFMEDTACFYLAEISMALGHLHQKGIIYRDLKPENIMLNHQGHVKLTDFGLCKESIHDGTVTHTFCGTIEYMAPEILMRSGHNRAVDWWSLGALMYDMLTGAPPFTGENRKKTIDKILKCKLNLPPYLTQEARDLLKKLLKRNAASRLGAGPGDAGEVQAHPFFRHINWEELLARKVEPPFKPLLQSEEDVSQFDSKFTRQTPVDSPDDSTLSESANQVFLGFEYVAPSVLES

CN(C)CCn1cc(-c2ccc(F)c(C(F)(F)F)c2)nc1C1CCN(c2ncnc3c2C(C)(C)C(=O)N3)CC1 [Example 31]
IC50 (p70 S6 Kinase): 7 nM
inhibition at 12.5 mg/kg ([1]; 1 hr post IV dose): 48.4%
inhibition at 12.5 mg/kg ([1]; 2 hr post IV dose): 12.6%
inhibition at 12.5 mg/kg ([1]; 4 hr post IV dose): 20.5%
inhibition at 12.5 mg/kg ([1]; 6 hr post IV dose): 51.7%
inhibition at 12.5 mg/kg ([1]; 8 hr post IV dose): 20.1%
inhibition at 12.5 mg/kg ([1]; 24 hr post IV dose): 6%
inhibition at 12.5 mg/kg ([2]; 1 hr post IV dose): 77.3%
inhibition at 12.5 mg/kg ([2]; 2 hr post IV dose): 76.1%
inhibition at 12.5 mg/kg ([2]; 4 hr post IV dose): 76.1%
inhibition at 12.5 mg/kg ([2]; 6 hr post IV dose): 76.1%
inhibition at 12.5 mg/kg ([2]; 8 hr post IV dose): 70.7%
inhibition at 12.5 mg/kg ([2]; 24 hr post IV dose): 61.6%

Reference: patent US8148387B2, “AKT and P70 S6 kinase inhibitors” (Eli Lilly and Company, priority 2008, dated 2012)
